The values that follow come from PMC12475174 (Scientific Reports, 2025).

The structures appear in SMILES notation. Marks after values point to notes of the source that are not given here.

Data set [1] concerns Allium cepa root meristem cells. The data set is described as follows: Comet assay. It is filed as in vivo. Particulars: 0.0714 mg/L, 72 h germination.
Data set [2] has the same test system. As to the kind of experiment: Chromosomal abnormality, MN and mitotic index test. It is filed as in vivo. Particulars: 0.0714 mg/L, 72 h germination.

For `[N-]=[N+]=[N-].[Na+]` [NaN3, sodium azide], in data set [1], the “Head DNA (%)” value is given as 25.0 ± 1.35^e %, the Head density stood at 75.475, the “Head diameter (px)” value is 8.000 px and the “Tail DNA (%)” value is given as 75.0 ± 1.35^a %. Moreover, in data set [1], the Tail density stood at 196.278, the “Tail length (px)” value worked out at 72.000 px and the Tail moment worked out at 53.981. The “Tail DNA (%)” value in data set [1] (listed as NaN₃) turned out to be 75.0 ± 1.35%. In data set [2] (1.000 cells per group), the Binuclear cell is given as 71.9 ± 3.95^a, the Bridge is reported as 48.3 ± 4.20^a, the Disorientation is 56.4 ± 4.16^a and the Fragment was 34.9 ± 3.59^a. Besides, in data set [2] (1.000 cells per group), the Micronucleus is recorded as 75.7 ± 8.27^a, the Nucleus bud was 41.0 ± 3.81^a, the Sticky chromosome was 72.7 ± 4.74^a and the “Unequal distribution of chromatin” value is 51.5 ± 3.72^a. In addition, the Vagrant chromosome in data set [2] (1.000 cells per group) is 67.7 ± 3.82^a. The Micronucleus in data set [2] (1.000 cells per group, listed as NaN₃) was found to be 75.7 ± 8.27. Further, in data set [2] (10.000 cells per group), the “Mitotic index (%)” value is listed as 6.75% and the “Mitotic index: number of dividing cells” value stood at 675 ± 11.2.
